According to ChEMBL document CHEMBL1136687, “Novel 5-aryl-1,3-dihydro-indole-2-thiones. potent, orally active progesterone receptor agonists” (Bioorg Med Chem Lett, 2003):

Experiments:
[1] = target: T1, Progesterone receptor (Rattus norvegicus) (UniProt Q63449); assay: Effective progestational dose on oral administration in rat decidualization model; format: functional, organism-based
T1 sequence (whole entry): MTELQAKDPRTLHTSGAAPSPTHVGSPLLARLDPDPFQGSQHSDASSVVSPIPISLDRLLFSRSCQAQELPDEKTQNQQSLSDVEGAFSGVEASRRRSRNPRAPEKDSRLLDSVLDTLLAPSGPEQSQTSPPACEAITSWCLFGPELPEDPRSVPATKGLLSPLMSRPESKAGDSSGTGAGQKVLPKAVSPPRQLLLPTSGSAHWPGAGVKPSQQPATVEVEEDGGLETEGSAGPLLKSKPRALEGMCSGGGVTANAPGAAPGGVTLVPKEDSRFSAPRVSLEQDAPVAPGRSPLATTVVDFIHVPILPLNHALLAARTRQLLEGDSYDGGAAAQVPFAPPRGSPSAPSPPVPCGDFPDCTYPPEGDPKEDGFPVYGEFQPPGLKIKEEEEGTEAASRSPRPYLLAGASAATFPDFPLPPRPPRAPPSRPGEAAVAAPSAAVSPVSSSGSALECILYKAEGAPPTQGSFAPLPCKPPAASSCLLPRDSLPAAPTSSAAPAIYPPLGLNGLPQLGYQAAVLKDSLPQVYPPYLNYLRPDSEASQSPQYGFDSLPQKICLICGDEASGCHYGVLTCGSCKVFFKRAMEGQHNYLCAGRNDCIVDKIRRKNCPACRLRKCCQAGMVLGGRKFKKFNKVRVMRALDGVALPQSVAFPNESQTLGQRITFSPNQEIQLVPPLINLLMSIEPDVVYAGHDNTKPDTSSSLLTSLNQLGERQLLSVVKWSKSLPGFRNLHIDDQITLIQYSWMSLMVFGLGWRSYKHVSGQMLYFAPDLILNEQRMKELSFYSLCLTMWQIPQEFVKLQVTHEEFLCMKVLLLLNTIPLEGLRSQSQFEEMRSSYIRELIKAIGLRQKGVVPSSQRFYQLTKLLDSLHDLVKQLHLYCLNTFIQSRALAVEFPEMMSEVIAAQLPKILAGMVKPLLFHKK

Progesterone receptor [2] = target: T2, Progesterone receptor (Rattus norvegicus, UniProt Q63449); assay: Inhibitory progestational activity on oral administration in uterine C3 model; format: functional, organism-based
T2 sequence (Q63449 whole entry): T1 sequence (whole entry)

Progesterone receptor [3] = target: T3, Progesterone receptor (Homo sapiens, UniProt P06401); assay: (§1) Effective concentration of progesterone receptor agonist induction of alkaline phosphatase activity in human T47D breast carcinoma cells; format: functional, cell-based
T3 sequence (P06401 whole entry): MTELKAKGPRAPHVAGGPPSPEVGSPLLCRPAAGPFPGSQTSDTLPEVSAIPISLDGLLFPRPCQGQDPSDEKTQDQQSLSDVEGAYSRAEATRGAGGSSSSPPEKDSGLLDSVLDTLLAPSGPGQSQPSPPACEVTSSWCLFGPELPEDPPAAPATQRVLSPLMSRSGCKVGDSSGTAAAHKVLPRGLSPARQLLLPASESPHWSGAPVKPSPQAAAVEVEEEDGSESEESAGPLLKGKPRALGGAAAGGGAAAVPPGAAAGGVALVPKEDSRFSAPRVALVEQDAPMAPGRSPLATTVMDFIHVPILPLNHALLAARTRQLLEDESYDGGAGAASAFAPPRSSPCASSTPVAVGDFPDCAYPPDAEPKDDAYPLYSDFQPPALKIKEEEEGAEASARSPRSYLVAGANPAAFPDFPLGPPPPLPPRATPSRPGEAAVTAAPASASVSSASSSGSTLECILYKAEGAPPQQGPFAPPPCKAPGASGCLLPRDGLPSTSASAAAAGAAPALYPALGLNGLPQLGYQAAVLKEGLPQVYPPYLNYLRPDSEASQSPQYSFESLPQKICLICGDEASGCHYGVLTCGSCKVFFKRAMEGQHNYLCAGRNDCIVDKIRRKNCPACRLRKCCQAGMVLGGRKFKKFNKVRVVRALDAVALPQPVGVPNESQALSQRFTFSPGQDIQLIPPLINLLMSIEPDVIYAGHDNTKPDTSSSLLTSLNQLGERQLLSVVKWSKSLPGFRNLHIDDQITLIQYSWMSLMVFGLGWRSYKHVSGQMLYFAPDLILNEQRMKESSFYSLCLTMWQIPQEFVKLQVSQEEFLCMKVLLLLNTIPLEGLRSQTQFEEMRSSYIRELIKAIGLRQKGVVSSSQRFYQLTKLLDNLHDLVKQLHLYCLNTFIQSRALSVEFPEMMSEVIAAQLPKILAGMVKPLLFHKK

Androgen receptor [4] = target: T4, Androgen receptor (Mus musculus, UniProt P19091); assay: Effective concentration against Androgen receptor in mouse fibroblast L929 cells
T4 sequence (P19091 whole entry): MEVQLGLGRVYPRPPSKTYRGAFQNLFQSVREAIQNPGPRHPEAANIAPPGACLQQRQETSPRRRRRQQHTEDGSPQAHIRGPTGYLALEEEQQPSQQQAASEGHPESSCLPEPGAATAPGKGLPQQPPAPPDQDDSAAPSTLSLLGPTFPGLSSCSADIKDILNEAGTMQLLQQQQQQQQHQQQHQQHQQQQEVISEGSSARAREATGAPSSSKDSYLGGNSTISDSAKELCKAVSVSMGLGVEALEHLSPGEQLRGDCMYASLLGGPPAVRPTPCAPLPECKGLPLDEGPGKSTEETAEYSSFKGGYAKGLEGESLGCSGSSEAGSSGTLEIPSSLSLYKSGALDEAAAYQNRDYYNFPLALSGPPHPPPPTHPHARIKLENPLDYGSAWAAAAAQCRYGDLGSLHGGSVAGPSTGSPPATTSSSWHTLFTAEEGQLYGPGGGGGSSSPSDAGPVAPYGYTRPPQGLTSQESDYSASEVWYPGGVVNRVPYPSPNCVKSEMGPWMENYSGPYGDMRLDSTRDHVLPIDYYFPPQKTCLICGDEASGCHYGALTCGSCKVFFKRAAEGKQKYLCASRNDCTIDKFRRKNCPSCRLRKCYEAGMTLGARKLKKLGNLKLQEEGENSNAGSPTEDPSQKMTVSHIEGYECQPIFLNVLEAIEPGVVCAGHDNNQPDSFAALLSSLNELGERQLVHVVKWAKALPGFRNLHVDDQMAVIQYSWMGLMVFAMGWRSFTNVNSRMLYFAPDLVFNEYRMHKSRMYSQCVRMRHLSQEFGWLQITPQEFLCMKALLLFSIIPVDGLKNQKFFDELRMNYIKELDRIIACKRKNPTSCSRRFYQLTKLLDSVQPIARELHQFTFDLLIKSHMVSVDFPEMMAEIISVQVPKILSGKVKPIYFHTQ

Androgen receptor [5] = target: T4, Androgen receptor; assay: Inhibitory activity against Androgen receptor in mouse fibroblast L929 cells; format: cell-based
Glucocorticoid receptor [6] = target: T5, Glucocorticoid receptor (Homo sapiens, UniProt P04150); assay: Effective concentration against glucocorticoid receptor in human lung A549 cells
T5 sequence (P04150 whole entry): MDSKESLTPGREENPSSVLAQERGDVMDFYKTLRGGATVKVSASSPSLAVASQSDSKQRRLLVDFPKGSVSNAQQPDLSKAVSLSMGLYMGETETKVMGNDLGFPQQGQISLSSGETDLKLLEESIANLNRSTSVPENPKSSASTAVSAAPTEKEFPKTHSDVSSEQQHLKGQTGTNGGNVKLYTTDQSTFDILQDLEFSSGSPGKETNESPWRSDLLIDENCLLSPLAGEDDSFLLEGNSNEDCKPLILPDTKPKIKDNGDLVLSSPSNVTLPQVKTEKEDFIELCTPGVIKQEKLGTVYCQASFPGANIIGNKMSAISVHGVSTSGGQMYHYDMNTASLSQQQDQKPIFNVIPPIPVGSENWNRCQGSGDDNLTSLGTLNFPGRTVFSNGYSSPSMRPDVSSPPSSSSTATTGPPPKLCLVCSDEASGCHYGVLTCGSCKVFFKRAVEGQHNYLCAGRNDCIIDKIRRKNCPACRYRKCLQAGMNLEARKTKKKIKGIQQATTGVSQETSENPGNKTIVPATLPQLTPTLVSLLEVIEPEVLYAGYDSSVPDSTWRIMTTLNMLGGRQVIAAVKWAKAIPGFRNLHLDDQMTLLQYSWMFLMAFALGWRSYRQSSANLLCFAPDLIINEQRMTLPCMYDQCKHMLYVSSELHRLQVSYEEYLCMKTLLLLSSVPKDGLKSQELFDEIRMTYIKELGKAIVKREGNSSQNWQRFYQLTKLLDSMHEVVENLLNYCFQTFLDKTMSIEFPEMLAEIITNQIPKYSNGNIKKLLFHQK

Glucocorticoid receptor [7] = target: T5, Glucocorticoid receptor; assay: Inhibitory activity against glucocorticoid receptor in human lung A549 cells
Progesterone receptor [8] = target: T3, Progesterone receptor; assay: Inhibition of 3 nM [3H]R5020 binding to progesterone receptor in human T47D cells; format: functional, cell-based
Progesterone receptor [9] = target: T3, Progesterone receptor; assay: as §1; format: functional, cell-based; remark: listed apart in the source

Row | Structure (SMILES) | EC50 (Progesterone receptor [3]) | also measured
1 | SC1=Nc2ccc(-c3cccc(Cl)c3)cc2C12CCCCC2 | – | ED50 [1]: > 3 mg/kg; IC50 (Progesterone receptor [2]): 0.37 mg/kg
2 | Fc1ccc(-c2ccc3c(c2)C2(CCCCC2)C(S)=N3)cc1F | 5.4 nM | –
3 | N#Cc1ccc(-c2ccc3c(c2)C2(CCCCC2)C(S)=N3)s1 | – | ED50 [1]: 0.1 mg/kg; IC50 (Progesterone receptor [2]): 0.03 mg/kg
4 | SC1=Nc2ccc(-c3cccc(-c4ccccc4)c3)cc2C12CCCCC2 | 71.4 nM | –
5 | S=C1Nc2ccc(-c3cccc(Cl)c3)cc2C12CCC2 | 28.7 nM | –
6 | Cc1cc(C#N)sc1-c1ccc2c(c1)C1(CCCCC1)C(S)=N2 | – | ED50 [1]: 1 mg/kg
7 | Cc1c(S)[nH]c2ccc(-c3cccc(Cl)c3)cc12 | > 3000 nM | –
8 | CC1(Cc2ccccc2)C(=S)Nc2ccc(-c3cccc(Cl)c3)cc21 (stereo not drawn) | 1200 nM | –
9 | N#Cc1cc(F)cc(-c2ccc3c(c2)C2(CCCCC2)C(S)=N3)c1 | 0.36 nM | EC50 (Androgen receptor [4]): > 10000 nM; IC50 (Androgen receptor [5]): > 10000 nM; EC50 (Glucocorticoid receptor [6]): > 10000 nM; IC50 (Glucocorticoid receptor [7]): 35 nM; IC50 (Progesterone receptor [8]): 15.9 nM; ED50 [1]: 0.1 mg/kg; IC50 (Progesterone receptor [2]): 0.025 mg/kg
10 | Fc1cccc(-c2ccc3c(c2)C2(CCCCC2)C(S)=N3)c1 | 1.6 nM | –
11 | CCCCc1cc(C#N)sc1-c1ccc2c(c1)C1(CCCCC1)C(S)=N2 | 23.5 nM | –
12 | CCC1(CC)C(=S)Nc2ccc(-c3cccc(Cl)c3)cc21 | 200 nM | –
13 | N#Cc1ccc(-c2ccc3c(c2)C2(CCCCC2)C(S)=N3)cc1F | 14.8 nM | –
14 | Fc1ccc(-c2ccc3c(c2)C2(CCCCC2)C(S)=N3)cc1Cl | 4.3 nM | –
15 | CC(=O)O[C@]1(C(C)=O)CC[C@H]2[C@@H]3C[C@H](C)C4=CC(=O)CC[C@]4(C)[C@H]3CC[C@@]21C [MEDROXYPROGESTERONE ACETATE] | – | IC50 (Progesterone receptor [2]): 0.026 mg/kg
16 | CC1(C)C(=S)Nc2ccc(-c3cccc(Cl)c3)cc21 | 5 nM | –

Continued, in another order:

Row | EC50 (Progesterone receptor [3]) | Structure (SMILES) | also measured
17 | 1.9 nM | N#Cc1ccc(-c2ccc3c(c2)C2(CCCCC2)C(S)=N3)o1 | ED50 [1]: 1 mg/kg
18 | 1.4 nM | S=C1Nc2ccc(-c3ccc(Cl)s3)cc2C12CCCCC2 | –
19 | 2.6 nM | COc1cc(F)cc(-c2ccc3c(c2)C2(CCCCC2)C(=S)N3)c1 | –
20 | 2000 nM | S=C1Nc2ccc(-c3ccc(Cl)cc3)cc2C12CCCCC2 | –
21 | 1 nM | N#Cc1ccc(-c2ccc3c(c2)C2(CCCCC2)C(=S)N3)s1 | –
22 | > 3000 nM | CN1C(=S)C2(CCCCC2)c2cc(-c3cccc(Cl)c3)ccc21 | EC50 (Progesterone receptor [9]): > 3000 nM
23 | 2.5 nM | Oc1cccc(-c2ccc3c(c2)C2(CCCCC2)C(S)=N3)c1 | –
24 | 9.8 nM | S=C1Nc2ccc(-c3cccc(Cl)c3)cc2C12CCCC2 | –
25 | 1.9 nM | N#Cc1cc(-c2ccc3c(c2)C2(CCCCC2)C(=S)N3)co1 | –
26 | 4.2 nM | N#Cc1cc(-c2ccc3c(c2)C2(CCCCC2)C(=S)N3)ccc1F | –
27 | 5.3 nM | S=C1Nc2ccc(-c3ccccc3Cl)cc2C12CCCCC2 | –
28 | 0.8 nM | Fc1cc(F)cc(-c2ccc3c(c2)C2(CCCCC2)C(=S)N3)c1 | –
29 | 0.5 nM | Fc1cc(Cl)cc(-c2ccc3c(c2)C2(CCCCC2)C(=S)N3)c1 | –
30 | 0.5 nM | Cc1cc(C#N)sc1-c1ccc2c(c1)C1(CCCCC1)C(=S)N2 | –
31 | 2 nM | N#Cc1cccc(-c2ccc3c(c2)C2(CCCCC2)C(=S)N3)c1 | ED50 [1]: 0.4 mg/kg; IC50 (Progesterone receptor [2]): 0.3 mg/kg
32 | 0.3 nM | N#Cc1cc(-c2ccc3c(c2)C2(CCCCC2)C(=S)N3)cs1 | –
33 | 1.6 nM | S=C1Nc2ccc(-c3cccc(Cl)c3)cc2C12CCCCC2 | –
34 | 1.4 nM | N#Cc1ccc(F)c(-c2ccc3c(c2)C2(CCCCC2)C(=S)N3)c1 | –
35 | 7.7 nM | CCCc1cc(C#N)sc1-c1ccc2c(c1)C1(CCCCC1)C(S)=N2 | –
